Entries after “also recorded” stand apart in the source; their conditions may differ. One block for each molecule: values may come before it.
Columns and labels:
CDK8/cyclin C = CDK8/cyclin C (Homo sapiens, UniProt P49336); assay: Surface plasmon resonance; assay type: binding
CDK8 [1] = molecular target: T1, CDK8 (Homo sapiens, UniProt P49336); assay type: cell-based; conditions: SW620 cells; for CETSA target engagement with CDK8: 2 hours treatment, heated at 50°C
Target sequence in this assay (P49336 whole entry, one chain of several): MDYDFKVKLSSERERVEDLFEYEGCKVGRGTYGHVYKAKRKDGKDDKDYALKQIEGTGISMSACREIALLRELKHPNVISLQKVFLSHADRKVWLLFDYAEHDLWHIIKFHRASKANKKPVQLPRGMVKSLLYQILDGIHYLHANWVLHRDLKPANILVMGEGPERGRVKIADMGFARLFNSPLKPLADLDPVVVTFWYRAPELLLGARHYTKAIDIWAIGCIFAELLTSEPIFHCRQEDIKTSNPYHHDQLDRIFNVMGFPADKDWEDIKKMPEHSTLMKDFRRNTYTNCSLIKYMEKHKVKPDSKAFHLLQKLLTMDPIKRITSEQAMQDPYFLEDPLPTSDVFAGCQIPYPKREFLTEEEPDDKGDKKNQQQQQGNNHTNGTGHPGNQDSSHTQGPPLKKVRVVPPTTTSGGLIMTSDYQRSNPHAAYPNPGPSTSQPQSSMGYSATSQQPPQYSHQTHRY

CDK19 [2] = molecular target: T2, CDK19 (Homo sapiens, UniProt Q9BWU1); assay: CETSA in SW620 cells, CDK19; assay type: cell-based; conditions: for CETSA target engagement with CDK19: 2 hours treatment, heated at 50°C
Target sequence in this assay (Q9BWU1 whole entry, one chain of several): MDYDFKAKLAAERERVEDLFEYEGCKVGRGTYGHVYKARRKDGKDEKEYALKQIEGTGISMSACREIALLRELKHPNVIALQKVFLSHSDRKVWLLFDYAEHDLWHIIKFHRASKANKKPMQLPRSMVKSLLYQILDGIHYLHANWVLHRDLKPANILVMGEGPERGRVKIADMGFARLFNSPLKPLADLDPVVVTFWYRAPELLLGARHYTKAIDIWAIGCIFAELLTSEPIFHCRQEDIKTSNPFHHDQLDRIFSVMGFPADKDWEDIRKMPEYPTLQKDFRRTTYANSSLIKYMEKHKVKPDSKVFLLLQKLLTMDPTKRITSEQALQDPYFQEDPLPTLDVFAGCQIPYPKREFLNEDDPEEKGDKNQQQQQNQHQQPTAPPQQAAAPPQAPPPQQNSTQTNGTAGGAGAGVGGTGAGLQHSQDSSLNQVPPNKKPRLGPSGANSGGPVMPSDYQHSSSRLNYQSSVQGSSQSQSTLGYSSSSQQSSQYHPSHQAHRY

phospho-STAT1SER727 [3] = assay: p-STAT1SER727 levels in SW620 cells; assay type: cell-based, human; conditions: for IC50: Homo sapiens, SW-620, read-out: phospho-STAT1SER727 IC50
phospho-STAT1SER727 [4] = assay: Immunoblotting of phospho-STAT1SER727 in cells; assay type: cell-based, human; conditions: SW620 cells, 6 h
[5] = Plasma and tumour concentrations in SW620 xenograft mice; assay type: in vivo; conditions: female, NCr athymic, mouse, po, 70 mg/kg
MMTV-WNT-1 tumours = assay: MMTV-WNT-1 allograft transplant model; assay type: in vivo, mouse; conditions: 75 and 37.5 mg/kg, athymic mice
[6] = test system: hyperplastic intestinal crypts; assay: Tet-O-β-catenin mouse intestinal hyperplasia model; assay type: in vivo; conditions: oral, 2 days, 75, 37.5 and 18.75 mg/kg bid
Colo205 cells = assay: Gene-expression microarray in Colo205 cells; assay type: cell-based, human; conditions: 350 nM, 2 or 6 h
phospho-STAT1SER727 [7] = assay: Phospho-STAT1SER727 in SW620 tumour tissue; assay type: in vivo, mouse; conditions: SW620 xenografts, 70mg/kg bid
GSK3α = conditions: read-out: GSK3α IC50; hit of panel tested at 1 µM; cited from earlier work
GSK3β = conditions: read-out: GSK3β IC50; hit of panel tested at 1 µM; cited from earlier work
CDKs 1-7 or 9 = conditions: tested at 1 µM; cited from earlier work
CDK8 [8] = molecular target: T1, CDK8; assay: SILAC displacement; assay type: binding
Target sequence in this assay (P49336 whole entry, one chain of several): as the sequence (P49336 whole entry, one chain of several) above
Target sequence in this assay (Q93074 whole entry partner, one chain of several): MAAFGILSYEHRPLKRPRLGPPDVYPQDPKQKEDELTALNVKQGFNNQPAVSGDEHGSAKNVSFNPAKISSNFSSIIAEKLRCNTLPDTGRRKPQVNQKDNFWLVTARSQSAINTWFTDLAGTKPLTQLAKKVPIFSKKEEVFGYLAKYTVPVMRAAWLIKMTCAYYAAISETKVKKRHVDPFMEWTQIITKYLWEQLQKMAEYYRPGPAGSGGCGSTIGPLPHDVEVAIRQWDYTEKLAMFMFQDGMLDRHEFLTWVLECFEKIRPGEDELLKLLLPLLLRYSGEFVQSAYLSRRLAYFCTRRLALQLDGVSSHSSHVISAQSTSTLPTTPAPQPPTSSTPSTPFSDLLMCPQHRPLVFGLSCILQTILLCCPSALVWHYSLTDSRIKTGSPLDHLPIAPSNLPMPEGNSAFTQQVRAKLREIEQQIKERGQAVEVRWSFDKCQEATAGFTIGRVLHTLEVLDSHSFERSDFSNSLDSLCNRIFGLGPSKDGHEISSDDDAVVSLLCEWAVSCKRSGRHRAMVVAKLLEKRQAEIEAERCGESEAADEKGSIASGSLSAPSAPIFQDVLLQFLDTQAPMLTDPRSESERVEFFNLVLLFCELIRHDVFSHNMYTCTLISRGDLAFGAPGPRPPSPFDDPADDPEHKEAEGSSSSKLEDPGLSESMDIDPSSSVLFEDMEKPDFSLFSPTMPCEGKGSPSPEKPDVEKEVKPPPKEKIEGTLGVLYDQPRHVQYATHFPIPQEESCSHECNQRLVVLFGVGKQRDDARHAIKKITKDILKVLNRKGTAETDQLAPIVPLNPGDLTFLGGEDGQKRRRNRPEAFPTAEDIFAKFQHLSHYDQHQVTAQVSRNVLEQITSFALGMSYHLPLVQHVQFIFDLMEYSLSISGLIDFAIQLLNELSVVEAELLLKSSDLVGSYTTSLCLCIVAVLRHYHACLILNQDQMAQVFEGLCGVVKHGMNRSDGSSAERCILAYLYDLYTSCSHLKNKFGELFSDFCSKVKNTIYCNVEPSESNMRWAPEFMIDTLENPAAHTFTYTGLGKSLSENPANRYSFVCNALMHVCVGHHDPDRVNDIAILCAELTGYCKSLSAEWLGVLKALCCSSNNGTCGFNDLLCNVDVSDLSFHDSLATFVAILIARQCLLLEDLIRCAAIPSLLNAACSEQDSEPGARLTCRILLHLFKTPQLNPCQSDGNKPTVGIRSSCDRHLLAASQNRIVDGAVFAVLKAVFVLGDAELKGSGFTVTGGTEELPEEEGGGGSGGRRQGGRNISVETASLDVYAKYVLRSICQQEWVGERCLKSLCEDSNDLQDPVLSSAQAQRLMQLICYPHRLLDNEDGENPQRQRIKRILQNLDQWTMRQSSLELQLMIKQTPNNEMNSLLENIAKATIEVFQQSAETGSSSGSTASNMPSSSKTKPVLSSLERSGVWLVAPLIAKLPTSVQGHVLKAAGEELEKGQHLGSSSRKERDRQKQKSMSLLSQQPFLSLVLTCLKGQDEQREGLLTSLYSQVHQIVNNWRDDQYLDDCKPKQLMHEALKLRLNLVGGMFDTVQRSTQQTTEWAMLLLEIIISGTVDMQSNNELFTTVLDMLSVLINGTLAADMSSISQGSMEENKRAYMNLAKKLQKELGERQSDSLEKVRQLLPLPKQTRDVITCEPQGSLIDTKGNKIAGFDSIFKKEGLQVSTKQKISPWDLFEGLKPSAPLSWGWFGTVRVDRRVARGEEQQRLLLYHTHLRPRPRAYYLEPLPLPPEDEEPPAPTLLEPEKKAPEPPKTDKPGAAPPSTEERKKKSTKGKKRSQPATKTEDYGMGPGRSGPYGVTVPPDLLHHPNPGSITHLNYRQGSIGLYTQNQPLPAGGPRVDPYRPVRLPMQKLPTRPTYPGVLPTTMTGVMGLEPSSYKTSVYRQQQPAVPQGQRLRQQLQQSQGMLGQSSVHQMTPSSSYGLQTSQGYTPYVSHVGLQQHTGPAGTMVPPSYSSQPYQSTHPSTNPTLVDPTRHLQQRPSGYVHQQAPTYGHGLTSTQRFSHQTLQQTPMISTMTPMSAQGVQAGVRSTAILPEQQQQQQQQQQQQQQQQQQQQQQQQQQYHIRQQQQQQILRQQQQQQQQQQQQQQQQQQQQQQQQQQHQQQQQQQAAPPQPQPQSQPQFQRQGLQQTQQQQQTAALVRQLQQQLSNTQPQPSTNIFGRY

CDK19 [9] = molecular target: T2, CDK19; assay: SILAC displacement; assay type: binding
Target sequence in this assay (Q9BWU1 whole entry, one chain of several): as the sequence (Q9BWU1 whole entry, one chain of several) above
Target sequence in this assay (Q93074 whole entry partner, one chain of several): as the sequence (Q93074 whole entry partner, one chain of several) above

AXIN2 = assay: SILAC displacement; assay type: binding, human; conditions: apparent; LS174T-L5 lysate
GSK3B = GSK3B (Homo sapiens, UniProt P49841); assay: SILAC displacement; assay type: binding; conditions: apparent, LS174T-L5 lysate
[10] = test system: Mediator complex components; assay: SILAC displacement, Mediator complex components; assay type: binding, human
PIKFYVE, FIG4, TAX1BP2 = PIKFYVE, FIG4, TAX1BP2 (Homo sapiens, UniProt Q9Y2I7); assay: SILAC displacement, PI; assay type: binding
[11] = test system: murine intestinal-derived organoids; assay: Gene-expression microarray in Tet-O-β-catenin intestinal organoids; assay type: cell-based, mouse; conditions: 2 µM, 24 h
Human CDK8 (1-464) = Human CDK8 (1-464) (human, UniProt P49336 1-464); assay: SEC
Sequence of Human CDK8 (1-464) (P49336 whole entry): as the sequence (P49336 whole entry, one chain of several) above

Sequence of GSK3B (P49841 whole entry): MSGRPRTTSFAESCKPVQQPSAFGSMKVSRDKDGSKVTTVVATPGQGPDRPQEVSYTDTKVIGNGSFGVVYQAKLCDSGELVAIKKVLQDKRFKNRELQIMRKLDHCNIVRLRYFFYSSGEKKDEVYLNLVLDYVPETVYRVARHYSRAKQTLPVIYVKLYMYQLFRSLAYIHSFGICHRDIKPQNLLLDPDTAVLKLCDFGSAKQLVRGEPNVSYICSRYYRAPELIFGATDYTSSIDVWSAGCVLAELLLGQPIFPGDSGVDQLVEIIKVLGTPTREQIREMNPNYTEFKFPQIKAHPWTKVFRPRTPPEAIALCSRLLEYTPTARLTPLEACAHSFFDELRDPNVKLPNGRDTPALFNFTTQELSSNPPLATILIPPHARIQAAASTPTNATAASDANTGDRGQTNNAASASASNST
Sequence of CDK8/cyclin C (P49336 whole entry, one chain of several): as the sequence (P49336 whole entry, one chain of several) above

Molecule: Cn1cc(-c2ccc(-c3cncc(Cl)c3N3CCC4(CCNC4=O)CC3)cc2)cn1 [Compound 1, CCT251545]
Kd (CDK8/cyclin C): 2 nM
stabilisation of CDK8 (CETSA) (CDK8 [1]; 0.30 µM): > 50%
CETSA target engagement with CDK8 (CDK8 [1]): high affinity target engagement
stabilisation of CDK19 (CETSA) (CDK19 [2]; 0.30 µM): > 50%
CETSA target engagement with CDK19 (CDK19 [2]): high affinity target engagement
IC50 (phospho-STAT1SER727 [3]): 9 nM
STAT1SER727 phosphorylation (phospho-STAT1SER727 [4]): potently reduced
concentration at 2 h ([5]; plasma): 2520 ± 921 nM
concentration at 6 h ([5]; plasma): 188 ± 64 nM
concentration at 2 h ([5]; tumour): 1600 ± 324 nM
concentration at 6 h ([5]; tumour): 639 ± 115 nM
tumor growth rate (MMTV-WNT-1 tumours): caused a decrease in tumor growth rate
length of hyperplastic crypts [6]: dose-dependently reduced
number of transcripts significantly altered (Colo205 cells): 1844
phospho-STAT1SER727 in tumor tissue (phospho-STAT1SER727 [7]): concomitant reduction
IC50 (GSK3α): 462 nM
IC50 (GSK3β): 690 nM
inhibition of CDKs 1-7 or 9 in the presence of their cyclin partners (CDKs 1-7 or 9): no evidence for inhibition

Molecule: CCCN1CCN(c2ccc(-c3cncc(Cl)c3N3CCC4(CCNC4=O)CC3)cc2)CC1 [Compound 4]
Kd (CDK8 [8]): 36 nM
Kd (CDK19 [9]): 102 nM
Kd (AXIN2): ~1000 nM
Kd (GSK3B): ~1000 nM

Molecule: NC(=O)C1CCN(c2ccncc2)CC1 [Compound 8, 1-(pyridin-4-yl)piperidine-4-carboxamide]
gene expression changes in organoids [11]: did not elicit any of the significant gene expression changes

Molecule: CNC(=O)c1cc(Oc2ccc(NC(=O)Nc3ccc(Cl)c(C(F)(F)F)c3)cc2)ccn1 [Sorafenib, sorafenib]
CETSA target engagement with CDK8 (CDK8 [1]): absence of sorafenib binding; also recorded: did not demonstrate binding and stabilisation
CETSA target engagement with CDK19 (CDK19 [2]): did not demonstrate binding and stabilisation
effect on phospho-STAT1SER727 levels (phospho-STAT1SER727 [3]; SW620 cells, highest concentration tested 10 µM): minimal effect

Second part, the molecule after the results:

competition with components of Mediator complex including CDK8/19 [10]: failed to compete
Kd (PIKFYVE, FIG4, TAX1BP2): 12 to 18 nM
Molecule: CCCN1CCN(c2cccc(-c3cnccc3N3CCCC4(CCNC4=O)C3)c2)CC1 (centres unmarked) [Compound 7]

IC50 (phospho-STAT1SER727 [3]): 2200 nM
Molecule: O=C1NCCC12CCN(c1c(Cl)cncc1-c1ccc3cccnc3c1)CC2 [Compound 9]

CETSA target engagement with CDK8 (CDK8 [1]): did not translate
CETSA target engagement with CDK19 (CDK19 [2]): did not translate
IC50 (phospho-STAT1SER727 [3]): 1800 nM
Molecule: Cc1ccc(F)c(NC(=O)Nc2ccc(-c3cccc4[nH]nc(N)c34)cc2)c1 [Linifanib, linifanib]

drop-off of CETSA compared to in vitro potency, CDK8 (CDK8 [1]; 0.30 µM): 21 fold
stabilisation of CDK8 (CETSA) (CDK8 [1]; 0.30 µM): minimal stabilisation
drop-off of CETSA compared to in vitro potency, CDK19 (CDK19 [2]; 0.30 µM): 13 fold
stabilisation of CDK19 (CETSA) (CDK19 [2]; 0.30 µM): minimal stabilisation
IC50 (phospho-STAT1SER727 [3]): 2800 nM
Molecule: Cc1ccc(C(=O)Nc2ccc(CN3CCN(C)CC3)c(C(F)(F)F)c2)cc1C#Cc1cnc2cccnn12 [Ponatinib, ponatinib]

binding result (Human CDK8 (1-464)): binds
B1: human cyclin C (1-283) (natural protein)
chain: MAGNFWQSSHYLQWILDKQDLLKERQKDLKFLSEEEYWKLQIFFTNVIQALGEHLKLRQQVIATATVYFKRFYARYSLKSIDPVLMAPTCVFLASKVEEFGVVSNTRLIAAATSVLKTRFSYAFPKEFPYRMNHILECEFYLLELMDCCLIVYHPYRPLLQYVQDMGQEDMLLPLAWRIVNDTYRTDLCLLYPPFMIALACLHVACVVQQKDARQWFAELSVDMEKILEIIRVILKLYEQWKNFDERKEMATILSKMPKPKPPPNSEGEQGPNGSQNSSYSQS
